Converted amounts (≈) assume the structure as drawn. The source made the active and inactive calls. The calls are words filed in the database; no cut-off is given here.
Legend:
[1] = system: Mycobacterium tuberculosis; assay: Antimicrobial activity against Mycobacterium tuberculosis H37Rv at 100 ug/ml by BACTEC MGIT method; assay type: functional, organism-based
[2] = system: Aspergillus niger; assay: Antimicrobial activity against Aspergillus niger MTCC 282 by paper-disk diffusion method; assay type: functional
[3] = system: Pseudomonas aeruginosa; assay: Antimicrobial activity against Pseudomonas aeruginosa MTCC 741 by agar streak dilution method; assay type: functional
[4] = system: Klebsiella pneumoniae; assay: Antimicrobial activity against Klebsiella pneumoniae MTCC 109 at 100 ug/ml by paper disk diffusion method; assay type: functional, organism-based
[5] = system: Mycobacterium tuberculosis; assay: Antimicrobial activity against Mycobacterium tuberculosis H37Rv by Lowenstein and Jensen method; assay type: functional; conditions: for MIC: Mycobacterium tuberculosis, H37Rv
[6] = system: Bacillus cereus; assay: Antimicrobial activity against Bacillus cereus MTCC 619 by agar streak dilution method; assay type: functional
[7] = system: Escherichia coli; assay: Antimicrobial activity against Escherichia coli MTCC 739 by paper disk diffusion method; assay type: functional
[8] = system: Aspergillus clavatus; assay: Antimicrobial activity against Aspergillus clavatus MTCC 1323 at 100 ug/ml by paper disk diffusion method; assay type: functional, organism-based
[9] = system: Aspergillus fumigatus; assay: Antimicrobial activity against Aspergillus fumigatus MTCC 343 by agar streak dilution method; assay type: functional
[10] = system: Staphylococcus aureus; assay: Antimicrobial activity against Staphylococcus aureus MTCC 96 by agar streak dilution method; assay type: functional
[11] = system: Escherichia coli; assay: Antimicrobial activity against Escherichia coli MTCC 739 by agar streak dilution method; assay type: functional
[12] = system: Candida albicans; assay: Antimicrobial activity against Candida albicans MTCC 183 by paper-disk diffusion method; assay type: functional
[13] = system: Staphylococcus aureus; assay: Antimicrobial activity against Staphylococcus aureus MTCC 96 by paper-disk diffusion method; assay type: functional
[14] = system: Bacillus cereus; assay: Antimicrobial activity against Bacillus cereus MTCC 619 by paper disk diffusion method; assay type: functional
[15] = system: Aspergillus niger; assay: Antimicrobial activity against Aspergillus niger MTCC 282 by agar streak dilution method; assay type: functional
[16] = system: Aspergillus fumigatus; assay: Antimicrobial activity against Aspergillus fumigatus MTCC 343 by paper-disk diffusion method; assay type: functional
[17] = system: Candida albicans; assay: Antimicrobial activity against Candida albicans MTCC 183 by agar streak dilution method; assay type: functional
[18] = system: Salmonella typhi; assay: Antimicrobial activity against Salmonella enterica subsp. enterica serovar Typhi MTCC 733 by paper disk diffusion method; assay type: functional
[19] = system: Pseudomonas aeruginosa; assay: Antimicrobial activity against Pseudomonas aeruginosa MTCC 741 by paper disk diffusion method; assay type: functional
[20] = system: Shigella flexneri; assay: Antimicrobial activity against Shigella flexneri MTCC 1457 at 100 ug/ml by paper-disk diffusion method; assay type: functional, organism-based
[21] = system: Proteus vulgaris; assay: Antimicrobial activity against Proteus vulgaris MTCC 1771 at 100 ug/ml by paper disk diffusion method; assay type: functional, organism-based
[22] = system: Salmonella typhi; assay: Antimicrobial activity against Salmonella enterica subsp. enterica serovar Typhi MTCC 733 by agar streak dilution method; assay type: functional
[23] = system: Mycobacterium tuberculosis; assay: Antimicrobial activity against Mycobacterium tuberculosis H37Rv by BACTEC MGIT method; assay type: functional; conditions: Mycobacterium tuberculosis, H37Rv
[24] = system: Bacillus cereus; assay: Antimicrobial activity against Bacillus cereus MTCC 619 at 100 ug/ml by paper disk diffusion method; assay type: functional, organism-based
[25] = system: Proteus vulgaris; assay: Antimicrobial activity against Proteus vulgaris MTCC 1771 by paper disk diffusion method; assay type: functional
[26] = system: Aspergillus fumigatus; assay: Antimicrobial activity against Aspergillus fumigatus MTCC 343 at 100 ug/ml by paper-disk diffusion method; assay type: functional, organism-based
[27] = system: Proteus vulgaris; assay: Antimicrobial activity against Proteus vulgaris MTCC 1771 by agar streak dilution method; assay type: functional
[28] = system: Escherichia coli; assay: Antimicrobial activity against Escherichia coli MTCC 739 at 100 ug/ml by paper-disk diffusion method; assay type: functional, organism-based

| Structure (SMILES) | inhibition [1] | inhibition zone (IZ) [2] [mm] | MIC [3] [µg/mL] | inhibition zone (IZ) [4] | inhibition (percent inhibition) [5] [%] | MIC [5] [µg/mL] | inhibition zone (IZ) [8] | MIC [10] [µg/mL] | inhibition zone (IZ) [12] [mm] | inhibition zone (IZ) [13] [mm] | MIC [15] [µg/mL] | MIC [17] [µg/mL] | inhibition zone (IZ) [18] [mm] | inhibition zone (IZ) [19] [mm] | inhibition zone (IZ) [20] | MIC [22] [µg/mL] | MIC [23] [µg/mL] | also measured |
| --- | --- | --- | --- | --- | --- | --- | --- | --- | --- | --- | --- | --- | --- | --- | --- | --- | --- | --- |
| N#Cc1ccc(Nc2nc(Oc3ncnc4ccccc34)nc(N3CCOCC3)n2)cc1C(F)(F)F | inactive | 22 | 100 (≈ 202 µM) | inactive | 98 | 100 (≈ 202 µM) | inactive | 100 (≈ 202 µM) | 20 | 22 | 100 (≈ 202 µM) | 100 (≈ 202 µM) | 22 | 22 | inactive | 100 (≈ 202 µM) | > 6.25 | MIC [6]: 100 µg/mL (≈ 202 µM); inhibition zone (IZ) [7]: 21 mm; MIC [9]: 100 µg/mL (≈ 202 µM); MIC [11]: 100 µg/mL (≈ 202 µM); inhibition zone (IZ) [14]: 23 mm; inhibition zone (IZ) [16]: 21 mm; inhibition zone (IZ) [21]: inactive |
| N#Cc1ccc(Nc2nc(Oc3ncnc4ccccc34)nc(N3CCCCC3)n2)cc1C(F)(F)F | inactive | 21 | 100 (≈ 203 µM) | inactive | 94 | 500 (≈ 1020 µM) | inactive | 100 (≈ 203 µM) | 20 | 22 | 100 (≈ 203 µM) | 100 (≈ 203 µM) | 20 | 22 | inactive | 100 (≈ 203 µM) | > 6.25 | inhibition zone (IZ) [24]: inactive; inhibition zone (IZ) [25]: 20 mm; inhibition zone (IZ) [26]: inactive; MIC [27]: 100 µg/mL (≈ 203 µM); inhibition zone (IZ) [28]: inactive |

From ChEMBL document CHEMBL3044572, “Discovery of 2-(4-cyano-3-trifluoromethylphenyl amino)-4-(4-quinazolinyloxy)-6-piperazinyl(piperidinyl)-s-triazines as potential antibacterial agents” (2012)
